Assay results taken from US20070249637A1, “Inhibitors Of Hepatitis C Virus Protease, And Compositions And Treatments Using The Same” (priority 2004, published 2007).
“And” between values parts separate entries of the source, which are not always exact repeats. Equal entries are not always repeated.

Experiments:
[1] = molecular target: T1, full-length NS3-NS4A enzyme (Hepatitis C virus genotype 1a, UniProt P27958); test: HCV protease assay (continuous FRET, full-length enzyme); format: biochemical; conditions: 3 nM full-length NS3-NS4A, 3 uM depsipeptide FRET substrate S1; competitive inhibition fit
T1 construct: 3 nM full-length NS3-NS4A enzyme
T1 sequence (P27958 1027-1657): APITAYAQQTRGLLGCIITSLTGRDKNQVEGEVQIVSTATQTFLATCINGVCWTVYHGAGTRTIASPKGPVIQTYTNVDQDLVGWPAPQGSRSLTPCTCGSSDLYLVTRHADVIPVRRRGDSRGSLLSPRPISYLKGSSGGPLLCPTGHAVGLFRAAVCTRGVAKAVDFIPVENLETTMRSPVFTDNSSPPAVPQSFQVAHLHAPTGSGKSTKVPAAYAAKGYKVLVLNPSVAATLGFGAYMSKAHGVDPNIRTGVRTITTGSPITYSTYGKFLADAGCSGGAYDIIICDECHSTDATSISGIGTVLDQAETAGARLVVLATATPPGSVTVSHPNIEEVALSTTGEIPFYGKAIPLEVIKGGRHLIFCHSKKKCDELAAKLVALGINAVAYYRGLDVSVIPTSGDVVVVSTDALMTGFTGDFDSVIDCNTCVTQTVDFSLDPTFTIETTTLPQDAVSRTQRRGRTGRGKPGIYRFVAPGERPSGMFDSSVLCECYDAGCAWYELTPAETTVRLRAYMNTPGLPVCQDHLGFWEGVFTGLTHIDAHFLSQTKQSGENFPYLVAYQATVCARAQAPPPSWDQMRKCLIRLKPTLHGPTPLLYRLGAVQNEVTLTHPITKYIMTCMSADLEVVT
T1 sequence (P27958 1658-1711): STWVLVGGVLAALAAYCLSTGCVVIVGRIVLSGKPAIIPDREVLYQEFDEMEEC
Experimental: HCV protease activity and compound inhibition was monitored using a continuous, fluorescence resonance energy transfer (FRET) assay. Test compounds at various concentrations were added to assay buffer (50 mM MOPS pH 7.5, 50 mM NaCl, 20% glycerol, 0.025% Triton-X 100, 1 mM tris(2-carboxyethyl)phosphine) containing 3 uM depsipeptide FRET substrate S1 (Anaspec) (see Taliani et al. Analytical Biochemistry, 240, 60-67 (1996)) in a white, non-binding 96-well plate (Corning). The reaction was started by the addition of 3 nM full-length NS3-NS4A enzyme. The increase in fluorescence intensity following peptide cleavage was monitored using a Safire fluorescence plate reader (Tecan). The excitation and emission wavelengths were 340 nm and 500 nm, respectively. Inhibition constants (KI) were calculated by non-linear regression analysis using an equation derived for competitive inhibition.

[2] = test system: HCV dual reporter subgenomic replicon (B6b cell line); test: HCV dual reporter subgenomic replicon assay, Renilla luciferase (antiviral activity); format: cell-based; conditions: Hepatitis C virus, 72 h; 50% reduction of Renilla luciferase expression, 3 days incubation
Experimental: The compounds described herein were tested for antiviral activity utilizing a dual-reporter replicon assay as described in U.S. patent application Ser. No. 10/818,075 (the '075 application), filed Apr. 5, 2004. The disclosure of the '075 application is incorporated herein.
(§1) Cell-based antiviral activity was evaluated in the previously described HCV dual reporter subgenomic replicon system (the '075 application). With this system, the effects of a compound on both HCV replication and cell viability can be simultaneously determined by measuring the intracellular levels of two separate reporter proteins. The dicistronic selectable replicon contains the Renilla luciferase gene such that Renilla luciferase activity within stably-transfected cells serves as a marker of HCV replication. The firefly luciferase gene is stably integrated into and expressed by the Huh-7 host cells. Since firefly luciferase activity is dependent upon cellular transcription and translation, firefly luciferase activity serves as an indicator of cell viability.
(§2) The dual reporter selectable replicon cell line (B6b) was maintained in DMEM supplemented with 10% FBS, L-glutamine, non-essential amino acids, penicillin, streptomycin, and selection agents (200 ug/ml G418 and 6 ug/ml blastocidin). On the first day of the experiment, cells were trypsinized, washed, and diluted in medium lacking the selection agents. Cells were transferred to 96-well, black-walled, clear bottom plates at a density of 2×10^4 cells in 150 ul of medium per well. Cells were allowed to settle for 60 to 90 minutes while compounds were being prepared. Each compound was initially diluted to a 4× working stock (2.56% DMSO in tissue culture medium) that was then serially diluted nine times in half log increments in medium with 2.56% DMSO. Fifty microliters of each dilution were then added in triplicate to the plated cells in order to obtain final IX compound concentrations with 0.64% DMSO. Typical testing concentrations ranged from 320 uM to 10 nM. Control wells containing 0.64% DMSO without compound were also included on each plate.
(§3) After 3 days of incubation under humidity at 37° C. with 5% CO2, plates were microscopically examined for compound precipitation and cell death. Tissue culture medium was then aspirated and cells were lysed with 20 ul of 1× Passive Lysis Buffer (Promega, Madison, Wis.). Reporter activity was measured using a MicroBeta Jet 1450 (Perkin Elmer, Boston, Mass.) following sequential 50 ul additions of firefly and Renilla luciferase substrates as described in the manufacturers protocol (Promega). Luciferase activities were expressed as a percentage of the signals observed in the compound-free control wells. The amount of compound required to reduce Renilla luciferase expression by 50% is defined as the 50% effective concentration, or EC50. The amount of compound that reduces firefly luciferase expression by 50% is defined as the 50% cytotoxic concentration, or CC50. A therapeutic index (TI) is calculated by dividing the CC50 by the EC50.

in vitro = format: cell-based; conditions: human; 50% reduction of firefly luciferase expression, 3 days incubation; read-out: Replicon CC50
Experimental: as §1, §2, §3

Row | SMILES | Ki [1] | EC50 [2] | CC50 at 3 days (in vitro)
1 | CC(C)(C)OC(=O)N[C@H]1CCCCC/C=C\[C@@H]2C[C@@]2(C(=O)O)NC(=O)[C@@H]2C[C@@H](Oc3cc(-c4ccccn4)nc4ccsc34)CN2C1=O [Example 14, (2R,6S,12Z,13aS,14aR,16aS)-6-[(Tert-butoxycarbonyl)amino]-5,16-dioxo-2-[(5-pyridin-2-ylthieno[3,2-b]pyridin-7-yl)oxy]-1,2,3,6,7,8,9,10,11,13a,14,15,16,16a-tetradecahydrocyclopropa[e]pyrrolo[1,2-a][1,4]diazacyclopentadecine-14a(5H)-carboxylic acid] | 8.9 nM | 610 nM | 92 µM
2 | Cn1ccnc1-c1cc2nccc(O[C@@H]3C[C@H]4C(=O)N[C@]5(C(=O)O)C[C@H]5/C=C\CCCCC[C@H](NC(=O)CC5CC5)C(=O)N4C3)c2s1 [Example 91, (2R,6S,12Z,13aS,14aR,16aS)-6-[(Cyclopropylacetyl)amino]-2-{[2-(1-methyl-1H-imidazol-2-yl)thieno[3,2-b]pyridin-7-yl]oxy}-5,16-dioxo-1,2,3,6,7,8,9,10,11,13a,14,15,16,16a-tetradecahydrocyclopropa[e]pyrrolo[1,2-a][1,4]diazacyclopentadecine-14a(5H)-carboxylic acid] | 91 nM and 70 nM | 290 nM | > 320 µM
3 | O=C(N[C@H]1CCCCC/C=C\[C@@H]2C[C@@]2(C(=O)O)NC(=O)[C@@H]2C[C@@H](Oc3cc(-c4ccccn4)nc4ccsc34)CN2C1=O)OC1CCC1 [Example 13, (2R,6S,12Z,13aS,14aR,16aS)-6-{[(Cyclobutyloxy)carbonyl]amino}-5,16-dioxo-2-[(5-pyridin-2-ylthieno[3,2-b]pyridin-7-yl)oxy]-1,2,3,6,7,8,9,10,11,13a,14,15,16,16a-tetradecahydrocyclopropa[e]pyrrolo[1,2-a][1,4]diazacyclopentadecine-14a(5H)-carboxylic acid] | 9 nM | 310 nM | 161 µM
4 | O=C(N[C@H]1CCCCC/C=C\[C@@H]2C[C@@]2(C(=O)O)NC(=O)[C@@H]2C[C@@H](Oc3nc(-c4ccccn4)nc4ccsc34)CN2C1=O)OC1CCCC1 [Example 41, (2R,6S,12Z,13aS,14aR,16aS)-6-{[(cyclopentyloxy)carbonyl]amino}-5,16-dioxo-2-[(2-pyridin-2-ylthieno[3,2-d]pyrimidin-4-yl)oxy]-1,2,3,6,7,8,9,10,11,13a,14,15,16,16a-tetradecahydrocyclopropa[e]pyrrolo[1,2-a][1,4]diazacyclopentadecine-14a(5H)-carboxylic acid] | 5.2 nM | 34 nM | 87 µM
5 | Cc1cc(-c2nc(O[C@@H]3C[C@H]4C(=O)N[C@]5(C(=O)O)C[C@H]5/C=C\CCCCC[C@H](NC(=O)O[C@H]5CCOC5)C(=O)N4C3)c3sccc3n2)n(C)n1 [Example 65, (2R,6S,12Z,13aS,14aR,16aS)-2-{[2-(1,3-Dimethyl-1H-pyrazol-5-yl)thieno[3,2-d]pyrimidin-4-yl]oxy}-5,16-dioxo-6-({[(3S)-tetrahydrofuran-3-yloxy]carbonyl}amino)-1,2,3,6,7,8,9,10,11,13a,14,15,16,16a-tetradecahydrocyclopropa[e]pyrrolo[1,2-a][1,4]diazacyclopentadecine-14a(5H)-carboxylic acid] | 10.3 nM and 7.9 nM | 2600 nM | > 320 µM
6 | CC(C)(C)OC(=O)N[C@H]1CCCCC/C=C\[C@@H]2C[C@@]2(C(=O)O)NC(=O)[C@@H]2C[C@@H](Oc3nc(-c4ccccn4)nc4ccsc34)CN2C1=O [Example 44, (2R,6S,12Z,13aS,14aR,16aS)-6-[(Tert-butoxycarbonyl)amino]-5,16-dioxo-2-[(2-pyridin-2-ylthieno[3,2-d]pyrimidin-4-yl)oxy]-1,2,3,6,7,8,9,10,11,13a,14,15,16,16a-tetradecahydrocyclopropa[e]pyrrolo[1,2-a][1,4]diazacyclopentadecine-14a(5H)-carboxylic acid] | 20 nM | 150 nM | 159 µM
